Where a name gives a salt, the structure may show the parent alone.
What was measured:
[1] = rabbits, 3.00 mg/kg of tizanidine hydrochloride, preliminary
[2] = background, cited from earlier work
[3] = animal data, local administration; cited from earlier work
[4] = aqueous solution 45.00 mg/mL, pH 4.8
Description: The proposed formulations are calculated for a single puff of 50 μL/nostril.

[5] = pH of the formulations / aqueous solutions; type: physicochemical; conditions: aqueous solutions without buffer
[6] = highest concentration, 14 days of treatment tid in rabbits
[7] = Human absorption: Tizaspray intranasally vs Sirdalud tablets, randomised cross-over, plasma levels of tizanidine by LC/MS/MS over 12 hours; conditions: highest concentration, single administration in humans
Description: The plasma levels of tizanidine were determined by LC/MS/MS over 12 hours from the administration.
R=Sirdalud tablet; T1=1*70 μL/puff by intranasal route; T2=2*70 μL/puff by intranasal route.

Structure (SMILES) | bioavailability by intranasal route ([1]; IN vs IM) | intranasal absorption ([1]; IN, without any enhancer) | absorption by oral route ([2]; 2 or 4 mg tablets) | T1/2z ([2]; known pharmacokinetic profile) [h] | Tmax ([2]; known pharmacokinetic profile) [h] | first-pass effect ([2]; oral route) | activity compared with clonidine [3] | tolerability on the nasal mucosa (redness or pain) [4] | pH of aqueous solutions [5] | tolerability on the nasal mucosa [6] | absorption by intranasal route [7]
Clc1ccc2nsnc2c1NC1=NCCN1 [Tizanidine, 5-chloro-N-(4,5-dihydro-1H-imidazol-2-yl)-2,1,3-benzothia-diazol-4-amine] | close to that of intramuscular route (IM) | rapidly absorbed | well and rapidly absorbed by oral route | 1 to 2 | 1 to 2 | extensive first-pass effect | equivalent activity of tizanidine and clonidine |  |  |  | 
Clc1ccc2nsnc2c1NC1=NCCN1 [tizanidine hydrochloride] |  |  |  |  |  |  |  | tolerated by the nasal mucosa without any local side effect | 4.8 | well tolerated on the nasal mucosa | rapidly and completely absorbed
